{"source": "patent US20130202614A1", "about": "“AUTOTAXIN PATHWAY MODULATION AND USES THEREOF” (B.S.R.C. \"ALEXANDER FLEMING\", priority 2010, published 2013)", "key": {"[1]": {"target": "T1, ATX (Mus musculus, UniProt Q9R1E6)", "T1 construct": "from tissue; host or cells: BAL fluid of WT mice exposed to aerosolised LPS", "experiment": "ATX activity assay (FS-3 cleavage) in plasma of saline- and BLM-treated mice", "assay_type": "in vivo", "details": "both in saline- and BLM-treated mice", "protocol": "[…] […] Reactions were incubated at 37° C. in a Tecan Infinite 200 microplate reader (Tecan Trading AG, Switzerland) set to make fluorescence measurements every 5 min for 1 hour. Autotaxin activity was quantitated by measuring the rate of increase in fluorescence at 528 nm with excitation at 485 nm."}, "[2]": {"test_system": "WT mice (C57/BL6)", "experiment": "BLM-induced pulmonary fibrosis in mice", "assay_type": "in vivo, mouse", "source_text": "8-12 week old littermate mice were divided into an experimental group that received intratracheal Bleomycin (BLM, 0.08 U) and a control group that received Normal Saline instead. Mice were sacrificed at 7 and 14 days post BLM instillation for pathology evaluation.\nAge and sex-matched 6-8 week old WT (C57/Bl6) mice were divided in four study groups according to the treatment regime.\nGroup A (n=5) received i.p injections of Veh (water) twice per week for two weeks starting at day −1 and instilled with Saline intratracheally at day 0.\nGroup B (n=3) received i.p injections of BRP-LPA (10 mg/Kg) twice per week for two weeks starting at day −1 and instilled with Saline intratracheally at day 0.\nGroup C (n=9) received i.p injections of Veh twice per week for two weeks starting at day −1 and instilled with BLM (0.08 U) intratracheally at day 0.\nGroup D (n=8) received i.p injections of BRP-LPA (10 mg/Kg) twice per week for two weeks starting at day −1 and instilled with BLM (0.08 U) intratracheally at day 0. A schematic representation of the time course of the protocol is depicted below.\nAll mice were sacrificed at day 14 after BLM instillation for disease evaluation. […] Lungs were lavaged 3 times with 1 ml aliquots of saline (BAL) followed by perfusion through the right ventricle of the heart with 10 ml of PBS. BAL fluid was centrifuged and cell pellets were used for total cell counts with Trypan Blue while the supernatant was snap frozen.\nRight lung was instilled with 1 ml of buffered formalin, dissected and fixed O/N in formalin. Left lung was snap frozen and used for soluble collagen measurements using the Sircol assay.\nSchematic representation of BRP-LPA administration protocol. BRP-LPA (or water) was administered intraperioneally in mice starting one day before BLM (or Sal) instillation and every three other days until the end of the study (14 days). Pulmonary fibrosis was induced with a single i.t. instillation of BLM at day 0.\nSoluble collagen measurements were performed using the Sircol reagent according to manufacture's recommendations."}, "[3]": {"target": "T1, ATX", "experiment": "ATX activity assay (FS-3 cleavage) in BAL fluids, LPS model", "assay_type": "in vivo", "details": "intratracheal prior to LPS; 24 hr", "protocol": "Autotaxin activity in BALF of mice was determined using the cleavage of the ATX-specific fluorogenic substrate FS-3 (Echelon Biosciences, UT, USA). Assays were conducted in a final volume of 100 μl comprising 20 μl 5× assay buffer (700 mM NaCl, 25 mM KCl, 5 mM MgCl2 and 250 mM Tris, pH 8.0), 20 μl of FS-3 (final concentration 2.5 μM) and 60 μl of BALF (diluted 1:2 in 1×PBS). Reactions were incubated at 37° C. in a Tecan Infinite 200 microplate reader (Tecan Trading AG, Switzerland) set to make fluorescence measurements every 5 min for 1 hour. Autotaxin activity was quantitated by measuring the rate of increase in fluorescence at 528 nm with excitation at 485 nm."}, "[4]": {"test_system": "WT mice", "experiment": "LPS-induced lung inflammation (aerosolised LPS) in mice", "assay_type": "in vivo, mouse", "protocol": "6-8 week old littermate mice were divided into an experimental group that received aerosolised LPS (from Pseudomonas aeruginosa, 10 mg dissolved in 3 ml Normal Saline) and a control group that received Normal Saline instead. […] The LPS solution was administered by a custom-made nebuliser flowing at 4 l/min oxygen for 20-25 min into an airtight chamber containing 5-7 mice. All analyses were performed 24 h later.\nUpon euthanasia, blood was drawn from the vena cava and was added to 50 mM EDTA for plasma preparations. Lungs were lavaged with an aliquot of 1 ml normal saline followed by 2 ml of saline (Bronchoalveolar Lavage Fluid. BALF). BALF aliquots were centrifuged; the cell pellets were combined and used for total cell counts with Trypan Blue while supernatants were snap-frozen. Lungs were then perfused with 10 ml of PBS through the spontaneous beating right ventricle and the left lung was snap-frozen for future analysis while the right lung was fixed in 10% neutral buffered formalin. Tissues were embedded in paraffin, and 5-μm-thick sections were cut at the median transverse level of the lungs. Sections were mounted on glass slides and stained with H&E.\nTotal protein concentration in BALFs was measured using the Bradford protein assay (Biorad, Hercules, Calif.) according to manufacturer's recommendations. OD readings of samples were converted to μg/ml using values obtained from a standard curve generated with serial dilutions of bovine serum albumin (50-500 μg/ml)."}, "[5]": {"test_system": "CIA in DBA/1 mice", "experiment": "Experimental arthritis (collagen induced arthritis, CIA) in mice", "assay_type": "in vivo, mouse", "details": "injected intraperitoneally twice a week"}, "[6]": {"test_system": "EAE mice", "experiment": "Experimental autoimmune encephalomyelitis (EAE), animal model of MS", "assay_type": "in vivo, mouse", "details": "injected intraperitoneally twice a week at 10 mg/Kg", "protocol": "Active EAE in wild-type C57Bl/6 mice was induced as described. Briefly, the mice were challenged in the […] with an emulsion containing 50 μg of MOG p35-55 peptide ( ) supplemented with 8 mg/ml heat-inactivated Mycobacterium tuberculosis (H37Ra strain; Difco Laboratories) in CFA (Difco Laboratories) on day 0 in the tail base. Booster immunization with an identical emulsion was given on both sides. Bordetella pertussis toxin (PT) (List Biologicals) were administered i.p. (200 ng/mouse) 48 h after the immunization. For induction of EAE in MOGi-cre/Atx^n/n mice, the doses for MOG35-55 peptide and PT were the same as for wild type mice Atx^n/n. From mice injected at 8 to 12 weeks of age, representative animals were fixed for immunohistochemistry (4% paraformaldehyde in phosphate-buffered saline) and then 7-μm thick frozen sections were used for immunohistochemistry, or fixed in 10% buffered formalin overnight at 4° C. for histopathology. […]\nMice were observed daily for clinical signs of EAE. The severity of EAE was evaluated and scored as follows: 0, no clinical disease; 1, tail paralysis; 2, hindlimb weakness and abnormal gait (incomplete paralysis of one or two hindlimbs); 3, paraplegia (complete paralysis of one or two hindlimbs); 4, quadriplegia; 5, moribund or dead animals."}, "[7]": {"test_system": "ATX", "experiment": "ATX ELISA in plasma and BAL fluids of control and BLM treated mice", "assay_type": "in vivo, mouse", "details": "saline treated, naive mice; same trend in BLM-treated mice", "protocol": "To detect ATX in biological fluids, a direct ELISA assay was developed using the commercially available anti-phospholipase D polyclonal antibody (Cat. No. 10005375, Cayman chemical, USA). The bottom of a NUNC-IMMUNO 96 MicroWell Elisa plate was coated overnight with 100 μl of 1:200 diluted serum in 0.05 M carbonate/bicarbonate coating buffer, pH 9.5 (Cat. No. S7795/S7277, Sigma, Saint Louis, […]., USA), washed three times with 0.05% Tween-20 (Cat. No. P1379, Sigma, USA) in TBS and blocked with 0.1% Bovine Serum Albumin (Cat. No. A7888, Sigma, USA) in 0.05% TBST for 1 h at RT. For each ELISA assay, 100 μl of two-fold serial dilutions of recombinant ATX protein ranging from 0.1 to 1.6 μg/ml were plated as standard curve and treated as all samples.\nThe plate was then incubated with 0.5 μg/ml detection antibody for 1 h and washed three times with 0.05% TBST. Autotaxin antigen was then detected with an anti-rabbit HRP-labeled secondary antibody (Cat. No. 4010-05, SouthernBiotech, USA) that was developed with TMB substrate (Cat. No. […], Sigma, USA). Readings were obtained at 450 nm. All samples and standards were assayed in triplicates."}}}
{"smiles": "CCCCCCCCCCCCCCCC(=O)OC[C@@H](O)CC(Br)P(=O)(O)O", "note": "(stereo partly drawn) [BrP-LPA, 1-Bromo-3(S)-hydroxy-4-(palmitoyloxy)butyl-phosphonate]", "values": [{"measurement": "ATX activity in plasma", "setting": "[1]", "value": "reduced ATX activity"}, {"measurement": "fibrosis development (histopathology, H/E lung sections)", "setting": "[2]; 10 mg/Kg i.p. biweekly, 14 days after BLM, vs vehicle", "value": "development of focal areas of fibrosis with a patchy distribution in lung parenchyma"}, {"measurement": "soluble collagen accumulation", "setting": "[2]; 10 mg/Kg i.p., 14 days after BLM, vs Veh-treated mice", "value": "significant reduction of collagen accumulation"}, {"measurement": "BAL total cell counts", "setting": "[2]; 14 days post BLM administration, Brp- vs Veh-treated", "value": "did not differ"}, {"measurement": "total protein content in BAL fluids", "setting": "[2]; vehicle- vs BrP-treated mice after BLM", "value": "did not differ"}, {"measurement": "ATX enzymatic activity in BAL fluids", "setting": "[3]", "value": "failed to detect lower levels of enzymatic activity"}, {"measurement": "BAL fluid total cell counts (recruitment of neutrophils in the lungs)", "setting": "[4]; BrP-LPA 100 μg/mouse intratracheally prior to aerosolized LPS (10 mg)", "value": "1.9×10^6±0.16"}, {"measurement": "BAL protein content", "setting": "[4]; LPS-exposed mice, vs vehicle-treated mice", "value": "significantly elevated"}, {"measurement": "LPS-induced lung inflammation and alveolar edema (histopathology, BALF total cell counts)", "setting": "[4]; intratracheal prior to LPS exposure, 24 hr", "value": "significant increases"}, {"measurement": "total protein concentration in BAL fluids", "setting": "[4]; saline treated mice", "value": "increased total protein concentration"}, {"measurement": "disease development (clinical and histopathological analysis)", "setting": "[5]", "value": "attenuated disease development"}, {"measurement": "disease development (clinical score)", "setting": "[6]", "value": "attenuated disease development"}, {"measurement": "levels of ATX in plasma and in BAL fluids", "setting": "[7]", "value": "non statistical increase"}]}
